Laboratory results published in article PMC3414448 (PLoS ONE, 2012).
pEC50: −log10 of the molar value. Where “and” joins values, the source holds several entries; their conditions need not be identical. Equal values may be shown once. Read-outs that look alike come from different tables or passages of the source.

Experiments:
[1] = system: undifferentiated Caco-2 cells
[2] = system: differentiated Caco-2 cells
[3] = system: 8-hydroxydeoxyguanosine (8-OHdG); test: cells; conditions: Homo sapiens, Caco-2, 24 h, read-out: EC50 8-OHdG nuclear staining
[4] = system: phosphorylated histone variant H2AX (γ-H2AX); test: cells; conditions: Homo sapiens, Caco-2, 24 h, read-out: EC50 γ-H2AX nuclear staining
[5] = system: 8-hydroxydeoxyguanosine (8-OHdG)
[6] = system: phosphorylated histone variant H2AX (γ-H2AX)
[7] = system: 8-hydroxydeoxyguanosine (8-OHdG); remark: listed apart in the source
[8] = system: phosphorylated histone variant H2AX (γ-H2AX); remark: listed apart in the source

Row | Compound | Cell Count (%Control) (CHO-K1 cells) | Cell Count (%Control) (A549 cells) | concentration at which nuclear area was significantly increased ([1]; undifferentiated Caco-2, 24 hr, p<0.05) | cytotoxicity in differentiated cells [2] | pEC50 [3] | pEC50 [4] | concentration at which nuclear area was significantly increased [1] | concentration at which 8-OHdG staining was significantly increased [5] | pEC50 ([5]; read-out: EC50 8-OHdG nuclear staining) | concentration at which γ-H2AX staining was significantly increased [6] | γ-H2AX staining at non-cytotoxic concentrations [6] | concentration at which 8-OHdG was significantly increased [7] | concentration at which γ-H2AX staining was increased [8]
1 | CO[C@@]12[C@H](COC(N)=O)C3=C(C(=O)C(C)=C(N)C3=O)N1C[C@@H]1N[C@@H]12 [MMC, mitomycin C] | 98.56 %Control and 101.70 %Control and 91.11 %Control | 98.78 %Control and 95.22 %Control and 78.78 %Control |  |  |  |  |  |  |  |  |  |  | 
2 | C=C(C)[C@H]1Cc2c(ccc3c2O[C@@H]2COc4cc(OC)c(OC)cc4[C@@H]2C3=O)O1 [Rotenone, rotenone] |  |  | all rotenone concentrations | Neither rotenone nor peroxide induced cytotoxicity | 6.00 | 5.96 |  |  |  |  |  |  | 
3 | OO [Peroxide, hydrogen peroxide] |  |  |  | Neither rotenone nor peroxide induced cytotoxicity |  |  | ≥ 100 µM | not statistically significant | 5.26 | 300 µM | increased γ-H2AX staining at the highest non-cytotoxic concentration (100 µM) | 100 µM | 1000 µM
